Converted amounts (≈) assume the structure as drawn. Read-outs that look alike come from different tables or passages of the source. Residues, ends and D or L forms follow the SMILES beside them. No end group written: not given here.
Experiments:
[1] = format: cell-based
[2] = test system: human bronchial epithelial cells (HBE); assay: LDH release assay (Cytotoxicity Detection Kit); format: cell-based; conditions: 100 μg/ml, 24 hours; no peptide control 1.0 ± 0.05
Procedure: (§1) The potential toxicity of the peptides was measured in two ways. First, the Cytotoxicity Detection Kit (Roche) (Lactate dehydrogenase-LDH) Assay was used. It is a colorimetric assay for the quantification of cell death and cell lysis, based on the measurement of LDH activity released from the cytosol of damaged cells into the supernatant. LDH is a stable cytoplasmic enzyme present in all cells and it is released into the cell culture supernatant upon damage of the plasma membrane. An increase in the amount of dead or plasma membrane-damaged cells results in an increase of the LDH enzyme activity in the culture supernatant as measured with an ELISA plate reader, OD490 nm (the amount of color formed in the assay is proportional to the number of lysed cells). In this assay, human bronchial epithelial cells (I6HBEo14, HBE) cells were incubated with 100 μg of peptide for 24 hours, the supernatant removed and tested for LDH. The other assay used to measure toxicity of the cationic peptides was the WST-1 assay (Roche). This assay is a colorimetric assay for the quantification of cell proliferation and cell viability, based on the cleavage of the tetrazolium salt WST-1 by mitochondrial dehydrogenases in viable cells (a non-radioactive alternative to the [^3H]-thymidine incorporation assay). In this assay, HBE cells were incubated with 100 μg of peptide for 24 hours, and then 10 μl/well Cell Proliferation Reagent WST-1 was added. The cells are incubated with the reagent and the plate is then measured with an ELISA plate reader, OD490 nm.

HBE cells = assay: WST-1 assay (cell viability); format: cell-based, human
Procedure: as §1

A549 epithelial cells = assay: Human Operon arrays (PRHU04-S1) of A549 cells treated with peptide alone (Tables 31-37, 53); conditions: A549 cells, peptide 50 μg/ml, 4 h; for X58467 cytochrome P450, expression Ratio ID#:ctrl: Table 36
[3] = Citobacter rhodensis, overnight, 96-well plate
[4] = Enterohaemorrhagic E. coli, overnight, 96-well plate
[5] = Escherichia coli, overnight, 96-well plate
[6] = Pseudomonas aeruginosa, overnight, 96-well plate
[7] = Salmonella enteritidis ssp. typhimurium, overnight, 96-well plate
[8] = Staphylococcus aureus, overnight, 96-well plate

Compound | LDH Release (OD490 nm) [2] [OD490 nm] | OD490 nm (WST-1 cell viability) (HBE cells) [OD490 nm] | MIC, C. rhod. ([1]; 24 h) [µg/mL] | MIC, E. coli ([1]; 24 h) [µg/mL] | MIC, EHEC ([1]; 24 h) [µg/mL] | MIC, S. typhim. ([1]; 24 h) [µg/mL] | other results
Gentamicin |  |  |  |  |  |  | MIC, C. rhod. [1, 3]: 0.25 µg/mL; MIC, EHEC [1, 4]: 0.5 µg/mL; MIC, E. coli [1, 5]: 0.25 µg/mL; MIC, P. aerug. [1, 6]: 0.25 µg/mL; MIC, S. typhim. [1, 7]: 0.25 µg/mL; MIC, S. aureus [1, 8]: 0.25 µg/mL
KWKSFLRTFKSPVRTVFHTALKPISS [SEQ ID NO: 53] | 103 ± 0.06 | 1.51 ± 0.37 |  |  |  |  | MIC, C. rhod. [1, 3]: 16 µg/mL; MIC, EHEC [1, 4]: 8 µg/mL; MIC, E. coli [1, 5]: 4 µg/mL; MIC, P. aerug. [1, 6]: 8 µg/mL; MIC, S. typhim. [1, 7]: 8 µg/mL
KQKLFAKMLMSALKKKTLVTTPLAGK [ID 45] |  |  |  |  |  |  | X58467 cytochrome P450, expression Ratio ID#:ctrl (A549 epithelial cells): 3.4
CC[C@H](C)[C@H](NC(=O)CNC(=O)[C@H](CCCNC(=N)N)NC(=O)[C@H](CCSC)NC(=O)[C@H](CO)NC(=O)[C@@H](NC(=O)[C@H](CCCNC(=N)N)NC(=O)[C@H](CCCNC(=N)N)NC(=O)[C@@H](NC(=O)[C@H](CS)NC(=O)[C@H](Cc1c[nH]cn1)NC(=O)[C@@H](N)CCCNC(=N)N)[C@@H](C)CC)C(C)C)C(=O)N[C@H](C(=O)N[C@@H](CCSC)C(=O)N[C@@H](CCCNC(=N)N)C(=O)N[C@@H](CCCNC(=N)N)C(=O)N[C@@H](CS)C(=O)N[C@@H](CCCCN)C(=O)O)[C@@H](C)CC [SEQ ID NO: 38] (H-RHCIRRVSMRGIIMRRCK-OH) | 0.95 ± 0.02 | 1.83 ± 0.03 | 8 (≈ 3.52 µM) | 0.5 (≈ 0.22 µM) | 4 (≈ 1.76 µM) | 4 (≈ 1.76 µM) | MIC, P. aerug. ([1]; 24 h): 64 µg/mL (≈ 28.2 µM); MIC, S. aureus ([1]; 24 h): 32 µg/mL (≈ 14.1 µM)
KESIKVIIRGMMVRMKK [SEQ ID NO: 35] | 0.88 ± 0.03 | 1.00 ± 0.08 | 8 | 4 | 4 | 8 | MIC, P. aerug. ([1]; 24 h): 64 µg/mL; MIC, S. aureus ([1]; 24 h): 128 µg/mL
KKDAIKKVDIRGMDMRRAR [SEQ ID NO: 28] | 0.96 ± 0.06 | 1.69 ± 0.03 | 64 |  | 128 | 64 | 
KSRIVPAIPVSLL [SEQ ID NO: 7] | 1.01 ± 0.04 | 1.78 ± 0.10 |  |  |  |  | 
KKQMMKRVDVRGISVKRKR [SEQ ID NO: 34] | 1.02 ± 0.03 | 0.96 ± 0.05 | 64 | 8 | 8 | 32 | 
RRRWKWAWPRRK [ID 24] |  |  |  |  |  |  | ID#:ctrl intensity ratio, X65962 cytochrome P-450 (A549 epithelial cells): 12.0
DLPAKRGSAPGST [ID 12] |  |  |  |  |  |  | ID#:ctrl intensity ratio, M14565 cytochrome P450 (A549 epithelial cells): 10.6
KNKAFAKMLMKALKKVTTAAKPLTG [ID 44] |  |  |  |  |  |  | X58467 cytochrome P450, expression Ratio ID#:ctrl (A549 epithelial cells): 34.4
Polymyxin |  |  |  |  |  |  | MIC, C. rhod. [1, 3]: 0.25 µg/mL; MIC, EHEC [1, 4]: 0.5 µg/mL; MIC, E. coli [1, 5]: 0.25 µg/mL; MIC, P. aerug. [1, 6]: 0.25 µg/mL; MIC, S. typhim. [1, 7]: 0.5 µg/mL; MIC, S. aureus [1, 8]: 16 µg/mL
SLPIKHDRLPATS [ID 15] |  |  |  |  |  |  | ID#:ctrl intensity ratio, M14565 cytochrome P450 (A549 epithelial cells): 3.6
RRARIVPAIPVARR [SEQ ID NO: 9] | 1.6 ± 0.03 | 1.69 ± 0.29 |  |  |  |  | 
RAPYWPWAWARPRK [SEQ ID NO: 21] | 1.06 ± 0.04 | 1.28 ± 0.07 | 32 | 64 | 32 | 64 | MIC, P. aerug. ([1]; 24 h): 96 µg/mL; MIC, S. aureus ([1]; 24 h): 64 µg/mL
RAAFKWAWAWWRRK [SEQ ID NO: 23] | 1.26 ± 0.46 | 1.14 ± 0.24 | 4 | 4 | 4 | 16 | MIC, P. aerug. ([1]; 24 h): 8 µg/mL; MIC, S. aureus ([1]; 24 h): 8 µg/mL
SELPGLKHPCVPGS [SEQ ID NO: 13] | 0.93 ± 0.06 | 1.23 ± 0.11 |  |  |  |  | 
KNKAFAKMLMKALKKVTTAAKPLTG [SEQ ID NO: 44] | 0.97 ± 0.03 | 1.49 ± 0.39 | 64 | 8 | 64 | 128 | MIC, P. aerug. ([1]; 24 h): 128 µg/mL
